Experimental data: the supplement of paper PMC10307832

Key:
Assay in all cases: relative viability (nuclei count vs DMSO), 5 days (fraction); higher = more cells survive
AZD5582 + Navitoclax = compound: C[C@@H](C(=O)N[C@@H](C1CCCCC1)C(=O)N2CCC[C@H]2C(=O)N[C@@H]3[C@@H](CC4=CC=CC=C34)OCC#CC#CCO[C@@H]5CC6=CC=CC=C6[C@@H]5NC(=O)[C@@H]7CCCN7C(=O)[C@H](C8CCCCC8)NC(=O)[C@H](C)NC)NC [AZD5582] + CC1(C)CCC(c2ccc(Cl)cc2)=C(CN2CCN(c3ccc(C(=O)NS(=O)(=O)c4ccc(N[C@H](CCN5CCOCC5)CSc5ccccc5)c(S(=O)(=O)C(F)(F)F)c4)cc3)CC2)C1 [Navitoclax] (partner 0.5 µM)
How it was run: (§1)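 Values are medians from duplicate plates. Each reflects relative viability, defined as the nuclei count of treated wells over that of vehicle wells. Lung cancer cell lines in 1536-well plates were pin-tool dosed one day after seeding with one drug alone or with a fixed anchor-drug dose plus five library-drug doses (not always all listed) in √10 steps, then fixed, stained and imaged at 4× after 5 days.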

AZD5582 + Lapatinib = compound: C[C@@H](C(=O)N[C@@H](C1CCCCC1)C(=O)N2CCC[C@H]2C(=O)N[C@@H]3[C@@H](CC4=CC=CC=C34)OCC#CC#CCO[C@@H]5CC6=CC=CC=C6[C@@H]5NC(=O)[C@@H]7CCCN7C(=O)[C@H](C8CCCCC8)NC(=O)[C@H](C)NC)NC [AZD5582] + CS(=O)(=O)CCNCc1ccc(-c2ccc3ncnc(Nc4ccc(OCc5cccc(F)c5)c(Cl)c4)c3c2)o1 [Lapatinib] (partner 2 µM)
How it was run: as §1

[1] = compound: Cn1nnc2c(C(N)=O)ncn2c1=O [Temozolomide] + CCNC(=O)c1noc(-c2cc(C(C)C)c(O)cc2O)c1-c1ccc(CN2CCOCC2)cc1 [Luminespib] (partner 0.01 µM)
How it was run: as §1

Temozolomide + Dasatinib = compound: Cn1nnc2c(C(N)=O)ncn2c1=O [Temozolomide] + Cc1nc(Nc2ncc(C(=O)Nc3c(C)cccc3Cl)s2)cc(N2CCN(CCO)CC2)n1 [Dasatinib] (partner 0.075 µM)
How it was run: as §1

Cell Line	relative viability (AZD5582 + Navitoclax; first compound 0.001581 µM)	relative viability (AZD5582 + Navitoclax; first compound 0.005 µM)	relative viability (AZD5582 + Navitoclax; first compound 0.01581 µM)	relative viability (AZD5582 + Navitoclax; first compound 0.05 µM)	relative viability (AZD5582 + Lapatinib; first compound 0.001581 µM)	relative viability (AZD5582 + Lapatinib; first compound 0.005 µM)	relative viability (AZD5582 + Lapatinib; first compound 0.01581 µM)	relative viability (AZD5582 + Lapatinib; first compound 0.05 µM)	relative viability ([1]; first compound 0.2 µM)	relative viability ([1]; first compound 0.6325 µM)	relative viability ([1]; first compound 2 µM)	relative viability ([1]; first compound 6.325 µM)	relative viability ([1]; first compound 20 µM)	relative viability (Temozolomide + Dasatinib; first compound 0.2 µM)	relative viability (Temozolomide + Dasatinib; first compound 0.6325 µM)	relative viability (Temozolomide + Dasatinib; first compound 2 µM)	relative viability (Temozolomide + Dasatinib; first compound 6.325 µM)	relative viability (Temozolomide + Dasatinib; first compound 20 µM)
NCI-H1993	0.917	0.936	0.876	0.922	0.792	0.82	0.78	0.843	0.856	0.783	0.764	0.75	0.824	0.528	0.603	0.524	0.661	0.6
NCI-H1793	0.475	0.453	0.476	0.465	0.777	0.898	0.592	0.838		0.151	0.309	0.189	0.186		0.407	0.378	0.28	0.352
HCC-15	0.629	0.675	0.675	0.619	0.644	0.734	0.521	0.655	0.347	0.356	0.314	0.218	0.271	0.74	0.699	0.625	0.627	0.642
NCI-H1437	1.07	1.09	1.05	1.04	0.616	0.759	0.687	0.72	1.1	1.09	1.12	1.12	1.11	0.388	0.438	0.45	0.4	0.393
